Data taken from ChEMBL document CHEMBL4480380, “Identification and biological evaluation of novel benzothiazole derivatives bearing a pyridine-semicarbazone moiety as apoptosis inducers via activation of procaspase-3 to caspase-3” (Medchemcomm, 2019).

Legend:
U-937 [1] = test: Antiproliferative activity against human procaspase-3 over-expressing U937 cells after 24 hrs by CCK-8 assay; assay type: functional, cell-based; conditions: U-937, 24 h
MCF7 = test: Antiproliferative activity against human MCF7 cells after 24 hrs by CCK-8 assay; assay type: functional, cell-based; conditions: MCF7, 24 h
[2] = Selectivity ratio of IC50 for human MCF7 cells to IC50 for human procaspase-3 over-expressing U937 cells; assay type: functional
U-937 [3] = test: Induction of apoptosis in human U937 cells assessed as caspase-3 activity at 30 uM using Ac-DEVD-AFC as substrate preincubated for 16 hrs followed by substrate addition and measured after 60 mins by fluorescence assay (reference value: 7+/- 1%); assay type: functional

IC50 (U-937 [1]) [µM] | IC50 (MCF7) [µM] | Structure (SMILES) | Ratio IC50 [2] | Activity (U-937 [3]) [%]
15.6 | > 40 | CCN(CC)Cc1ccc2nc(NC(=O)N/N=C(\C)c3ccccn3)sc2c1 | 2.6 | –
> 40 | > 40 | C/C(=N\NC(=O)Nc1ccc(CN2CCC(C)CC2)cc1)c1ccccn1 | – | –
> 40 | > 40 | CCN(CC)Cc1ccc(NC(=O)NN=C(c2ccccn2)c2ccccn2)cc1 | – | –
> 40 | > 40 | CN(C)Cc1ccc(NC(=O)NN=C(c2ccccn2)c2ccccn2)cc1 | – | –
6 | > 40 | C=CCc1cccc(/C=N/NC(=O)CN2CCN(Cc3ccccc3)CC2)c1O [PAC-1] | 6.6 | 100
23.2 | > 40 | CN(C)Cc1ccc2nc(NC(=O)N/N=C/c3ccccn3)sc2c1 | 1.6 | –
> 40 | > 40 | CC1CCN(Cc2ccc(NC(=O)NN=C(c3ccccn3)c3ccccn3)cc2)CC1 | – | –
> 40 | > 40 | C/C(=N\NC(=O)Nc1nc2ccc(CN3CCC(C)CC3)cc2s1)c1ccccc1 | – | –
> 25 | 13.1 | CCN(CC)Cc1ccc(NC(=O)NN=C(c2ccccc2)c2ccccc2)cc1 | <1 | 20
> 40 | > 40 | C/C(=N\NC(=O)Nc1nc2ccc(CN(C)C)cc2s1)c1cnccn1 | – | –
> 25 | 13.3 | CC1CCN(Cc2ccc(NC(=O)NN=C(c3ccccc3)c3ccccc3)cc2)CC1 | <1 | 58
20.1 | > 40 | C/C(=N\NC(=O)Nc1nc2ccc(CN(C)C)cc2s1)c1ccccn1 | 2 | 68
> 40 | > 40 | CN(C)Cc1ccc(NC(=O)N/N=C/c2ccccn2)cc1 | – | –
> 40 | > 40 | CC1CCN(Cc2ccc(NC(=O)N/N=C/c3ccccn3)cc2)CC1 | – | –
